Results published in patent US20050176764A1, “Medicine for treating cancer” (KOWA CO., LTD, priority 2002, published 2005).
Structures can show the parent of a compound that is named as a salt.

Experiments:
Type in all cases: cell-based
MKN74 (stomach cancer) = assay: Cancer cell growth inhibition, sulforhodamine B colorimetry; conditions: MKN74, incubation two days
Method: (§1) Cultured human cancer cells were placed in a 96-well plate. On the following day, a solution of the compound prepared in Example 10 (in five concentrations resulting from 10-fold stepwise dilution: 10^−4, 10^−5, 10^−6, 10^−7, or 10^−8 M) was added, followed by incubation for two days. Cell count after growth was determined in each plate through colorimetry using sulforhodamine B. The concentration at which the cell count after growth was inhibited to 50% of that of the cell count of the control (in the absence of the compound prepared in Example 10) was calculated (GI50). Simultaneously, on the basis of the cell count just before addition of the compound prepared in Example 10 (time zero), the following value (concentration) was calculated. • TGI: a concentration at which cell growth is inhibited to a cell count equal to that at time zero (concentration at which no change in cell count is observed) • LC50: a concentration at which cell count is reduced to 50% of the cell count at time zero (cell-killing effect).

LOX-IMVI (melanoma) = assay: as above; conditions: incubation two days
Method: as §1

SF-539 (brain tumor) = assay: as above; conditions: SF-539, incubation two days
Method: as §1

HCC2998 (colon cancer) = assay: as above; conditions: HCC2998, incubation two days
Method: as §1

[1] = test system: PC-3 (prostatic carcinoma); assay: as above; conditions: PC-3, incubation two days
Method: as §1

MCF-7 (breast cancer) = assay: as above; conditions: MCF-7, incubation two days
Method: as §1

DMS114 (lung cancer) = assay: as above; conditions: DMS114, incubation two days
Method: as §1

OVCAR-3 (ovarian cancer) = assay: as above
Method: as §1

ACHN (renal cancer) = assay: as above; conditions: incubation two days
Method: as §1

[2] = test system: cultured human cancer cells; assay: Cancer cell growth inhibition, sulforhodamine B colorimetry, overall statement; conditions: result in words
Method: as §1

[3] = test system: Human umbilical venous endothelial cells (HUVECs); assay: Gene expression analysis (GeneChip HuGene FL array) in TNFα-stimulated HUVECs; conditions: Example 10 at 1 μM, TSA at 10 μM
Method: Human umbilical venous endothelial cells (HUVECs) were placed in 10 cm dishes (3×10^5 cells/dish). Two days thereafter, Trichostatin A (TSA, produced by Upstate) dissolved in dimethyl sulfoxide (DMSO) and the compound prepared in Example 10 dissolved in DMSO were individually added to a final concentrations of 10 μM and 1 μM, respectively. Each sample was stimulated with TNFα (final concentration: 10 ng/mL, Genzyme-Techne). Four hours later, total RNA was extracted with ISOGEN (Nippon Gene Co., Ltd.). The subsequent procedure was performed in accordance with the manufacturer's protocol (Affymetrix). From the thus obtained total RNA, mRNA was purified by a conventional method. cDNA was synthesized from the purified mRNA, and then biotin-labeled cRNA was synthesized by in vitro transcription. The cRNA was purified and subjected to heat treatment for fragmentation. The fragmented cRNA was used in gene expression analysis.
Method of gene expression analysis: The thus-prepared fragmented cRNA was injected to a HuGene human FL array (Affymetrix), and allowed to hybridize for 16 hours at 45° C. After washing, streptavidin labeled with phycoerythrin, and biotinylated anti-streptavidin antibody were added to each sample in order to cause reaction. Gene expression information was read by use of a dedicated scanner for GeneChip™ (Hewlett Packard). The thus-obtained information was analyzed with GeneChip Software (Affymetrix) for comparison in terms of level of expression.

[4] = Homo sapiens, 48 h, read-out: LC50 (the source's name)
[5] = out of 52 genes increased twice or more by TNFα

SMILES: COc1ccc(N(Cc2ccnc(-c3cc(OC)c(OC)c(OC)c3)c2)C2CCN(Cc3ccnc(-c4cc(OC)c(OC)c(OC)c4)c3)CC2)cc1 [Example 10, 4-[N-(4-methoxyphenyl)-N-[[2-(3,4,5-trimethoxypheny)pyridin-4-yl]methyl]amino]-1-[[2-(3,4,5-trimethoxyphenyl)pyridin-4-yl]methyl]piperidine Trihydrochloride]
- GI50 (MKN74 (stomach cancer); Homo sapiens, MKN-74, 48 h): 0.026 µM
- CC50 (MKN74 (stomach cancer); Homo sapiens, MKN-74, 48 h, read-out: LC50 (the source's name)): > 100 µM
- TGI (MKN74 (stomach cancer)): 0.56 µM
- GI50 (LOX-IMVI (melanoma); Homo sapiens, 48 h): 0.18 µM
- CC50 (LOX-IMVI (melanoma); [4]): 41 µM
- TGI (LOX-IMVI (melanoma)): 1.2 µM
- GI50 (SF-539 (brain tumor); Homo sapiens, 48 h): 0.83 µM
- LC50 (concentration reducing cell count to 50% of time-zero count) (SF-539 (brain tumor); Homo sapiens, 48 h): > 100 µM
- TGI (SF-539 (brain tumor)): >100 µM
- TGI (HCC2998 (colon cancer)): 10 µM
- GI50 (HCC2998 (colon cancer); Homo sapiens, HCC 2998, 48 h): 0.33 µM
- CC50 (HCC2998 (colon cancer); Homo sapiens, HCC 2998, 48 h, read-out: LC50 (the source's name)): 40 µM
- GI50 ([1]; Homo sapiens, 48 h): 26.3 µM
- CC50 [1, 4]: > 100 µM
- TGI [1]: >100 µM
- GI50 (MCF-7 (breast cancer); Homo sapiens, MCF7, 48 h): 0.16 µM
- CC50 (MCF-7 (breast cancer); Homo sapiens, MCF7, 48 h, read-out: LC50 (the source's name)): > 100 µM
- TGI (MCF-7 (breast cancer)): >100 µM
- TGI (DMS114 (lung cancer)): 2.6 µM
- GI50 (DMS114 (lung cancer); Homo sapiens, DMS-114, 48 h): 0.038 µM
- CC50 (DMS114 (lung cancer); Homo sapiens, DMS-114, 48 h, read-out: LC50 (the source's name)): > 100 µM
- GI50 (OVCAR-3 (ovarian cancer); Homo sapiens, 48 h, OVCAR-3, incubation two days): 0.35 µM
- CC50 (OVCAR-3 (ovarian cancer); Homo sapiens, OVCAR-3, 48 h, read-out: LC50): > 100 µM
- TGI (OVCAR-3 (ovarian cancer); OVCAR-3, incubation two days): 39 µM
- GI50 (ACHN (renal cancer); Homo sapiens, 48 h): 1.9 µM
- CC50 (ACHN (renal cancer); [4]): > 100 µM
- TGI (ACHN (renal cancer)): >100 µM
- growth inhibitory effect on cultured human cancer cells [2]: strong growth inhibitory effect
- mRNA expression level of ABC transporter B2 ([3]; TNFα 10 ng/mL, 4 h): 69
- mRNA expression level of B94 ([3]; TNFα 10 ng/mL, 4 h): 1010
- mRNA expression level of BCL3 ([3]; TNFα 10 ng/mL, 4 h): 125
- mRNA expression level of Cox-2 ([3]; TNFα 10 ng/mL, 4 h): 0
- mRNA expression level of EphrinA1 ([3]; TNFα 10 ng/mL, 4 h): 148
- mRNA expression level of Gro1 ([3]; TNFα 10 ng/mL, 4 h): 614
- mRNA expression level of I kappa B alpha ([3]; TNFα 10 ng/mL, 4 h): 1259
- mRNA expression level of IAP homolog B ([3]; TNFα 10 ng/mL, 4 h): 42
- mRNA expression level of ICAM-1 ([3]; TNFα 10 ng/mL, 4 h): 2174
- mRNA expression level of IFNGR2 ([3]; TNFα 10 ng/mL, 4 h): 186
- mRNA expression level of IL-7R ([3]; TNFα 10 ng/mL, 4 h): 44
- mRNA expression level of M-Ras-regulated GEF ([3]; TNFα 10 ng/mL, 4 h): 37
- mRNA expression level of MCP-1 ([3]; TNFα 10 ng/mL, 4 h): 43
- mRNA expression level of Na/K-ATPase beta-1 ([3]; TNFα 10 ng/mL, 4 h): 78
- mRNA expression level of Nef associated factor 1 ([3]; TNFα 10 ng/mL, 4 h): 496
- mRNA expression level of OB-cadherin-2 ([3]; TNFα 10 ng/mL, 4 h): 24
- mRNA expression level of RDC1 ([3]; TNFα 10 ng/mL, 4 h): 27
- mRNA expression level of Spliceosomal Protein Sap 49 ([3]; TNFα 10 ng/mL, 4 h): 40
- mRNA expression level of TRAF1 ([3]; TNFα 10 ng/mL, 4 h): 88
- mRNA expression level of VCAM-1 ([3]; TNFα 10 ng/mL, 4 h): 83
- mRNA expression level of beta-galactoside alpha-2; 6-sialyltransferase ([3]; TNFα 10 ng/mL, 4 h): 14
- mRNA expression level of caspase-like apoptosis regulatory protein 2 (clarp) ([3]; TNFα 10 ng/mL, 4 h): 76
- mRNA expression level of cytoplasmic antiproteinase 2 (CAP2) ([3]; TNFα 10 ng/mL, 4 h): 78
- mRNA expression level of ets-2 ([3]; TNFα 10 ng/mL, 4 h): 90
- mRNA expression level of exodus-1 ([3]; TNFα 10 ng/mL, 4 h): 310
- mRNA expression level of fractalkine ([3]; TNFα 10 ng/mL, 4 h): 7
- mRNA expression level of junB ([3]; TNFα 10 ng/mL, 4 h): 210
- mRNA expression level of lymphotoxin beta ([3]; TNFα 10 ng/mL, 4 h): −56
- mRNA expression level of metalloproteinase stromelysin-2 ([3]; TNFα 10 ng/mL, 4 h): 54
- mRNA expression level of ninjurin1 ([3]; TNFα 10 ng/mL, 4 h): 135
- mRNA expression level of p50-NF-kappa B homolog ([3]; TNFα 10 ng/mL, 4 h): 33
- number of genes whose expression was enhanced [3, 5]: 6 genes
- number of genes whose expression was inhibited [3, 5]: 25 genes
